Residues, ends and D or L forms follow the SMILES beside them. *: point of attachment. CH2Cl = ClC*
Key:
DPP-4 [1] = target: T1, DPP-4 (Homo sapiens, UniProt P27487); experiment: Inhibition of DPP-4 activity against Ala-Pro-AFC by P2-Pro-AMCC compounds; format: biochemical; design: DPP-4 (amino acids 39-766); FLAG (N); made in house; host or cells: 293 cells (secreted, purified from serum-free conditioned media)
Method: (§1) Inhibition of FAP and DPP-4 activity against Ala-Pro-AFC by P2-Pro-AMCC compounds was measured at various concentration of the P2-Pro-AMCC compounds in Table 7.

FAP [2] = target: T2, FAP (Homo sapiens, UniProt Q12884); experiment: Inhibition of FAP activity against Ala-Pro-AFC by P2-Pro-AMCC compounds; format: biochemical; design: FAP (amino acids 38-760); FLAG (N); made in house; host or cells: 293 cells (secreted, purified from serum-free conditioned media)
T2 sequence (Q12884 38-760): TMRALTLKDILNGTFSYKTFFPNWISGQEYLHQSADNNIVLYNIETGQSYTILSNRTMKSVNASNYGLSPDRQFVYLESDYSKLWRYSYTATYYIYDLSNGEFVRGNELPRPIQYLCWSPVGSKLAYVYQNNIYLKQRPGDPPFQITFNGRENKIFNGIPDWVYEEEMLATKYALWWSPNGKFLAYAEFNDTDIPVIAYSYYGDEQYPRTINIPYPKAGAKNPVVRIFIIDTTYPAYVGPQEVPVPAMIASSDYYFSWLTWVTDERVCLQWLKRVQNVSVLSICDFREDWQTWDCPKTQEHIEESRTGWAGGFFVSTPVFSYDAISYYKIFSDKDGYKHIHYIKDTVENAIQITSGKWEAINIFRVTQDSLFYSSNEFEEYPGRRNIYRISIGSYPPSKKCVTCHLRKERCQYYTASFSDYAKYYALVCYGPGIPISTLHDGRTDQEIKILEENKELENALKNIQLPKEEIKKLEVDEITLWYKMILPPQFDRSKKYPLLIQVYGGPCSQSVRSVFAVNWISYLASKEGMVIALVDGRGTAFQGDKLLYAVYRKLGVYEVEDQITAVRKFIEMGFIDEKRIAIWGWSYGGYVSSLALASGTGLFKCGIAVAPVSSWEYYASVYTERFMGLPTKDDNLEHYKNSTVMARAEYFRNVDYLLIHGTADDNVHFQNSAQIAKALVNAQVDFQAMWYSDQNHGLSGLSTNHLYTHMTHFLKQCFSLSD
Method: as §1

DPP-4 [3] = target: T1, DPP-4; experiment: Relative cleavage rates of coumarin (AMCC) dipeptide substrates by DPP-4; format: biochemical; design: DPP-4 (amino acids 39-766); FLAG (N); made in house; host or cells: 293 cells (secreted, purified from serum-free conditioned media); details: P2-Pro-AMCC substrates; hydrolysis rates normalized to Gly-Pro-AMCC
Method: (§2) The relative cleavage rates of a variety of N-blocked, C-terminal coumarin (AMCC) Gly-Pro dipeptide substrates 6 were measured. The rates were normalized to N-unblocked Gly-Pro-AMCC for FAP and DPP-4.
(§3) To examine whether FAP could cleave other N-substituted-Gly-Pro-based substrates, N-methyl-, formyl-, succinyl-, benzyloxycarbonyl-(Z-) and biotinyl-Gly-Pro-AMCC substrates 6 were synthesized and reacted with FAP (37 nM) and DPP-4 (6.8 nM).
(§4) Amino-terminus P2 was varied with the L-amino acids: alanine, aspartic acid, glutamic acid, phenylalanine, glycine, histidine, isoleucine, lysine, leucine, methionine, asparagine, proline, glutamine, arginine, serine, threonine, valine, tryptophan, and tyrosine (from left). AMCC=2-(7-amino-4-methyl-2-oxo-2H-chromen-3-yl)acetamide. For both enzymes, the amino acid adjacent in the model dipeptide substrate had little effect where the amino-terminus was unblocked. Hydrolysis rates of other P2-Pro-AMCC substrates by FAP and DPP-4 relative to Gly-Pro-AMCC include the following in Table 6:
(§5) Protease Assays—Protease activity was monitored continuously using a SpectraMax M2 microplate reader (Molecular Devices Corp., Sunnyvale Calif.) in the kinetic mode. Assays were conducted at 23° C. in 50 mM Tris (pH 7.4), 100 mM NaCl, 1 mM EDTA. The excitation/emission wavelengths for the different fluorogenic substrates were 360/460 nm (AMC), 400/505 nm (AFC), 340/425 nm (MNA), 340/510 nm (EDANS), and 337/425 nm (Abs). Standard curves of the appropriate fluorescent product versus concentration were used to convert relative fluorescence units to nmol of product produced. Substrates in the X-Pro-AMC library were used in rate assays at 5 μM final concentration. […] The kinetic parameters were calculated from Michaelis-Menten plots (V0 versus [S]) with nonlinear regression analysis using GraphPad software. kcat values were calculated under the assumption that each protease was 100% active.

FAP [4] = target: T2, FAP; experiment: Relative cleavage rates of coumarin (AMCC) dipeptide substrates by FAP; format: biochemical; design: FAP (amino acids 38-760); FLAG (N); made in house; host or cells: 293 cells (secreted, purified from serum-free conditioned media); details: P2-Pro-AMCC substrates; hydrolysis rates normalized to Gly-Pro-AMCC
Method: as §2, §3, §4, §5

FAP [5] = target: T2, FAP; experiment: Inhibition of recombinant FAP by cmk-based irreversible inhibitors; format: biochemical; design: FAP (amino acids 38-760); FLAG (N); made in house; host or cells: 293 cells (secreted, purified from serum-free conditioned media); details: for inhibitor concentration-dependent inhibition of FAP: 10, 100, and 500 μM inhibitor, residual activity against L-Ala-Pro-AFC; for time course of FAP activity in the presence of inhibitor: substrate L-Ala-Pro-AFC
Method: (§6) The cleavage activities of FAP and DPP-4 in the presence of an irreversible dipeptide inhibitor was measured (FIGS. 9-12). In each time course study (FIGS. 9-15), the protease (FAP, DPP) and the inhibitor compound were incubated together for 4 hours, then residual activity was assayed against substrate.
(§7) The cleavage activities of FAP and DPP-4 in the presence of a tetrapeptide irreversible inhibitor was measured.
(§8) Acetyl-gly-pro-chloromethyl ketone and acetyl-thre-ser-gly-pro-cmk were custom synthesized at Anaspec (San Jose, Calif.). Recombinant FAP (160 nM) and DPP-4 (160 nM) were reacted with Ac-GP-cmk or TSGP-cmk (0-500 μM) at 37° C. in 50 mM Tris-HCl, pH 7.5 containing 100 mM NaCl, and 0.1 mg/ml bovine serum albumin (assay buffer). After 6 hours, residual protease activity against AP-AFC (50 μM) was measured using a Molecular Devices M2 plate reader in the kinetic mode (excitation 400 nm, emission 505 nm). Inhibition data are graphed as residual activity relative to protease activity in the absence of inhibitor.
(§9) Inhibition of FAP and DPP-4 by the cmk-based inhibitors was studied under pseudo-first order conditions. Proteases (100 nM) were reacted with 10 μM inhibitor in assay buffer at 37° C. for increasing amounts of time. Residual protease activity was then measured using AP-AFC (50 μM) as a substrate. Pseudo-first order rate constants were calculated from the slope of plots of Ln (residual protease activity) versus time. Apparent association constants (kass) for inhibition were determined from the relationship kass=kobs/[I], where kobs is the pseudo-first order rate constant and [I] is the inhibitor concentration.

DPP-4 [6] = target: T1, DPP-4; experiment: Inhibition of recombinant DPP-4 by cmk-based irreversible inhibitors; format: biochemical; design: DPP-4 (amino acids 39-766); FLAG (N); made in house; host or cells: 293 cells (secreted, purified from serum-free conditioned media); details: for inhibition of DPP-4: 10, 100, and 500 μM inhibitor, residual activity against L-Ala-Pro-AFC; for time course of DPP-4 activity in the presence of inhibitor: substrate L-Ala-Pro-AFC
Method: as §6, §7, §8, §9

DPP-4 [7] = target: T1, DPP-4; experiment: Inhibition of DPP-4 by N-blocked boroPro compounds (progress curves); format: biochemical; design: DPP-4 (amino acids 39-766); FLAG (N); made in house; host or cells: 293 cells (secreted, purified from serum-free conditioned media); details: for FAP/DPP-4 Selectivity: DPP-4 Ki relative to FAP Ki; for Ki: cleavage of substrate L-Ala-Pro-AFC
Method: (§10) The steady states of product formation in the absence (V0) and presence of inhibitor (Vi) were used to calculate apparent inhibition constants (Kiapp) by plotting V0/Vi−1 against inhibitor concentration.
(§11) Briefly, proteases were added to a reaction mixture containing inhibitor and substrate (Ac-Ala-AMC for APH, Z-Gly-Pro-AMC for POP, and Ala-Pro-AFC for all others) in assay buffer at 23° C. Protease activity was followed continuously as described above to monitor time-dependent inhibition. Data were plotted as V0/Vi−1 versus [I], where V0 is the rate if substrate hydrolysis in the absence of inhibitor, Vi is the steady state rate of substrate hydrolysis in the presence of inhibitor and [I] is the concentration of Ac-Gly-BoroPro.
(§12) KI values for inhibition of proteases by 5 were determined using the method of progress curves. Briefly, proteases (10-100 nM) were added to a reaction mixture containing inhibitor 5 (0-10 μM) and substrate AP-AFC in assay buffer at 23° C. […] Data were plotted as V0/Vi−1 versus [I], where V0 is the rate if substrate hydrolysis in the absence of inhibitor, Vi is the steady state rate of substrate hydrolysis in the presence of inhibitor and [I] is the concentration of 5. […] Ki, the true equilibrium inhibition constant was determined according to the following relationship: Ki=Kobs/(1+[S]/Km), where [S] is the concentration of substrate used in the assay and Km is the Michaelis constant for substrate cleavage.

FAP [8] = target: T2, FAP; experiment: Inhibition of FAP by N-blocked boroPro compounds (progress curves); format: biochemical; design: FAP (amino acids 38-760); FLAG (N); made in house; host or cells: 293 cells (secreted, purified from serum-free conditioned media); details: cleavage of substrate L-Ala-Pro-AFC
Method: as §10, §11, §12

[9] = tested on: syngeneic tumors derived from fibrosarcoma, lymphoma, melanoma, and mastocytoma cell lines; details: oral administration to mice; cited from earlier work
tumor cells = details: cited from earlier work
FAP [10] = target: T2, FAP; details: FIG. 13
DPP-4 [11] = target: T1, DPP-4; details: FIG. 13

T1 sequence (P27487 39-766): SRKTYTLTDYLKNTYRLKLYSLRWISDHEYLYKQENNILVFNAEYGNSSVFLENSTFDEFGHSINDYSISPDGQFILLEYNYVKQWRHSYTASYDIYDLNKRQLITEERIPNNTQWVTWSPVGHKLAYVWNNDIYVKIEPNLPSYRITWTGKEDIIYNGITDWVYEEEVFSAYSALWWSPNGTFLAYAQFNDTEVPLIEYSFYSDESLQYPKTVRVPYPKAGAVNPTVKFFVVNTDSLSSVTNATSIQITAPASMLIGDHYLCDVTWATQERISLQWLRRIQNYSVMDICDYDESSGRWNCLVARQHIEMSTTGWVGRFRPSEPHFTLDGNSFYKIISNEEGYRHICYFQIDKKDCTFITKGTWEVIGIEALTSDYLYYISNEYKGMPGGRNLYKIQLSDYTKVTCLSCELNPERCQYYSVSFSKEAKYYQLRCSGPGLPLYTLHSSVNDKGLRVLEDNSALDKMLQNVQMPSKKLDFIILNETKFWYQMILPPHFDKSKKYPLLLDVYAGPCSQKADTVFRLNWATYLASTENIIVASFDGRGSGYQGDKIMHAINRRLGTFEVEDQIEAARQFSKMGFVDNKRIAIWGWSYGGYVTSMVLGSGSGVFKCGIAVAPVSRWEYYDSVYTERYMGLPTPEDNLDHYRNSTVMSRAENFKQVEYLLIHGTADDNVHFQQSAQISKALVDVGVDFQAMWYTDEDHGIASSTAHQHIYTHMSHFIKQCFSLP

Compound	Ki (DPP-4 [1]) [nM]	Ki (FAP [2]) [nM]	Relative Hydrolysis rate by DPP-4 (DPP-4 [3])	Relative Hydrolysis rate by FAP (FAP [4])	FAP/DPP-4 Selectivity (DPP-4 [7])	Ki (DPP-4 [7]) [nM]	Ki (FAP [8]) [nM]	further results
CC(=O)NC(C)C(=O)N1CCCC1C(=O)Nc1ccc2c(C)c(CC(N)=O)c(=O)oc2c1 [Ac-(D-Ala)]	> 2000	1000	1	3				
CC(=O)NC(CO)C(=O)N1CCCC1C(=O)Nc1ccc2c(C)c(CC(N)=O)c(=O)oc2c1 [Ac-(D-Ser)]	> 2000	200	0	3				
CC(=O)NCC(=O)N1CCC[C@H]1C(=O)CCl [Ac-Gly-Pro-cmk, Acetyl-gly-pro-chloromethyl ketone] (Ac-Gly-Pro-CH2Cl)								inhibitor concentration-dependent inhibition of FAP (FAP [5]): almost complete; time course of FAP activity in the presence of inhibitor (FAP [5]): time-dependent; inhibition of DPP-4 (DPP-4 [6]): not inhibited; time course of DPP-4 activity in the presence of inhibitor (DPP-4 [6]): not time-dependent inhibited
CC(=O)NC(CO)C(=O)NCC(=O)N1CCCC1B(O)O (stereo not drawn) [N-Ac-Ser-Gly-boroPro]					>3	> 40000	16500	
CC(C)[C@H](N)C(=O)N1CCC[C@H]1B(O)O [PT-100, Val-boro-Pro]								growth of syngeneic tumors [9]: slowed growth; direct cytotoxic effect on tumor cells (tumor cells): no direct cytotoxic effect
CC(=O)NC(C(=O)NC(CO)C(=O)NCC(=O)N1CCCC1C(=O)CCl)C(C)O (stereo not drawn) [TSGP-cmk, acetyl-thre-ser-gly-pro-cmk] (Ac-TSGP-CH2Cl; configuration not given here)								inhibitor concentration-dependent inhibition of FAP (FAP [5]): almost complete; time course of FAP activity in the presence of inhibitor (FAP [5]): time-dependent; inhibition of DPP-4 (DPP-4 [6]): not substantially inhibited; time course of DPP-4 activity in the presence of inhibitor (DPP-4 [6]): not time-dependent inhibited
cyclohexylglycine-2-cyano-proline [CHCP]								effect of inhibitor concentration on cleavage of AP-AFC by FAP (FAP [10]): not inhibitor concentration dependent cleavage by FAP; effect of inhibitor concentration on cleavage of AP-AFC by DPP-4 (DPP-4 [11]): inhibitor concentration dependent cleavage by DPP-4

The next lines start with results.

Ki (DPP-4 [1]) [nM]	Ki (FAP [2]) [nM]	Relative Hydrolysis rate by DPP-4 (DPP-4 [3])	Relative Hydrolysis rate by FAP (FAP [4])	FAP/DPP-4 Selectivity (DPP-4 [7])	Ki (DPP-4 [7]) [nM]	Ki (FAP [8]) [nM]	Compound	further results
				44	1100	25	Cc1cccc(C)c1C(=O)NCC(=O)N1CCCC1B(O)O (stereo not drawn) [N-(2,6-dimethylbenzoyl)-Gly-boroPro]	
				1.2	56	48	O=C(CNCc1ccccc1)N1CCCC1B(O)O (stereo not drawn) [N-benzyl-Gly-boroPro]	
2000	340	1	2				NCCC(=O)O [β-Ala]	

Source: patent US7399869B2, “Fibroblast activation protein inhibitor compounds and methods” (Genentech, Inc., priority 2005, dated 2008)
